Measurements taken from EP0442962B1, “LIPOSOMAL RADIOLOGIC CONTRAST AGENTS” (UNGER, Evan C, priority 1988, dated 1990).

Key:
Male Wistar rats = assay: In vivo MR contrast enhancement of microemulsified liposomes at 0.5 Tesla, Example 9; conditions: control, dose of 0.1 mmoles/kg; Figure 5
Procedure: All in vivo imaging was performed on a Toshiba MR-50A 0.5 Tesla whole body scanner. Scan parameters were TR = 400 msec TE = 15 msec, 5 mm slice, 1 mm interslice gap, 15 cm field of view with 4 acquisitions using a receive-only surface coil.
Male Wistar rats were scanned in the supine position, and signal intensities of liver, kidney and paraspinal muscle as well as urine, were measured pre and post contrast, with post contrast intervals comprising 15 minutes, 1 hour, 4 hours, 24 hours and 48 hours.
Injections of liposomes prepared as described above were made at concentrations of 0.1, 0.05 and 0.025 mM/kg, based on the weight of the rats, and were carried out by tail vein injection using a 26 gauge butterfly needle. The liposomes were injected over a period of approximately two minutes, and were first diluted with an equal volume of normal saline immediately prior to injection.

Male buffalo rats = assay: In vivo MR contrast enhancement (signal intensity pre and post contrast), Example 3; conditions: for Liver + Muscle (ratio of liver enhancement to muscle enhancement) / Liver enhancement / Muscle enhancement (paraspinal muscle): scans 30 min after I.V. injection
Procedure: All in vivo imaging was performed on a Siemens 1.5 Tesla magnet (Iselin, N.J.). Spin echo technique was utilized for both T1- and T2-weighted imaging. T1-weighted sequences utilized parameters TR/TE: 400 msec/16 msec, 4 acquisitions, 256 x 256 matrix 16 cm field view for 2 mm thick slices. For T1 calculations, images were acquired using a fixed TE of 28 msec with TR varying from 300, 500, 1500 and 3500 msec. For T2 calculations a fixed TR of 3500 msec was used with TE values of 28, 45, 70, 90 and 150 msec. T1 and T2 calculations were preformed using the software on the Magnetom System (Iselin, N.J.) by selecting a region of interest on the CRT monitor.
Male buffalo rats, weighing approximately 450 grams, were scanned using a 7.5 cm circular surface coil. The animals were scanned in the supine position, and signal intensities of liver, paraspinal muscle, kidney, renal pelvis, bladder and vascular structures were measured pre and post contrast. Rats were imaged pre and post contrast injection of either 0.4 µ Gd-DTPA liposomes (8 rats) or free Gd-DTPA (2 rats).
Injections of the 0.4 µ liposomes prepared in Example 1 were performed by tail vein injection using a 26 gauge butterfly needle. Gd-DTPA liposomes were injected over a period of approximately two minutes; liposomes were diluted with an equal volume of normal saline immediately prior to injection.

[1] = In vitro relaxivity from phantom imaging at 1.5 Tesla, Example 4; assay type: physicochemical; conditions: phantoms in PBS, T1
Procedure: Phantoms were prepared by diluting the vesicle preparation with Dulbecco's phosphate buffered saline (PBS) (Gibco), so as to obtain several samples for each vesicle preparation with an effective concentration of Gd-DTPA in the range 0.2-2 mmoles. Approximately 10 ml of each dilution was placed in 20 ml plastic syringes (Becton Dickinson), which were sealed with parafilm to prevent leakage and placed in a custom-built acrylic phantom holder which positioned the syringes with their long-axes horizontal within the bore of the magnet.
Phantoms were imaged using a Siemens 1.5 Tesla Magnetom whole body scanner (Iselin, N.J.) using body coil. For T1 calculations, images were acquired using spin-echo sequences with a fixed TE of 17 msec and TR values of 100, 300, 450, 600, 900, 1200, 1800, 2500 and 3500 msec. Other parameters were 4 acquisitions, 256 x 256 matrix, 30 cm field of view and 10 mm slices.

Hepatic Metastases = assay: Blind study detection of hepatic metastases on MR images pre and post contrast by 5 radiologists, Example 7; assay type: in vivo, rat; conditions: for Accuracy Post: includes adjustment for false positives; for #Post (number of metastases detected on Post contrast scans): one rat per dose, 5 radiologists; for Sensitivity Post: percentage of lesions detected on Post contrast scans
Description: The cell line employed, C5, is a clonal derivative of a rat liver epithelial cell line initially derived from the livers of newborn Fisher rats and subsequently transformed in vitro by transfection with a plasmid containing the T24ras gene driven by the mouse metallothionein promotor. See, Li et al., P.N.A.S., Vol. 35, pp. 344 (1988); Reynolds et al., Oncogene, Vol. 323, pp. 323-330 (1987).
The tumors used in this study were generated by injecting 3 x 10⁵ cells into the superficial lobe of rat livers. Three separate injections of 10⁵ cells were made within an approximate area of 0.5 cm² under direct visualization. The tumors were allowed to grow for 14 to 17 days before imaging followed by sacrifice.
MR imaging was performed on a whole body 1.5 T Siemens Magnetom (Erlangen, West Germany) using a 15 cm Helmholtz receive only coil. Spin echo technique was used with TR/TE of 400 msec/17 msec, 2 mm slices with 4 acquisitions. Images were obtained pre and post contrast in both axial and coronal planes with post contrast images obtained from 5 to 60 minutes post contrast.
Rats were lightly sedated with ether and then fully sedated with I.P. Ketamine/Rompun 0.10 ml/100 g body weight. Contrast injections were performed by tail vein over two minutes with volume approximately 0.5 ml. Doses were as follows: free Gd-DTPA 0.5 and 0.2 mM/kg, 400 nm Gd-DTPA liposomes 0.5, 0.2 and 0.1 mM/Kg and 70 nm Gd-DTPA liposomes 0.5 and 0.2 mM/Kg with one rat injected with each dose.
Pre and post contrast images were separated and, in a blind study, five radiologists experienced in interpreting MR and oncologic imaging were given the MR images to interpret. The MR scans were presented to the radiologists randomly without knowledge of path findings or contrast agent used. The radiologists were instructed to count the number of metastases, plot lesion locations and measure lesion size. The number and sizes of lesions detected were then correlated with the histologic sections and the true number of metastases detected was determined for pre and post contrast scans. The Mann-Whitney test was used to test for statistical significance of results for lesion detection pre and post contrast.
Immediately after imaging, the rats were sacrificed by ether overdose and the livers removed and fixed in 10% formalin. The gross liver specimens were photographed and sectioned in the coronal plant at 2 mm intervals. The number of lesions were counted and size of lesions were measured to correlate with findings on MR images. Microscopic sections were prepared using hematoxylin and eosin stain and studied with light microscopy.

Substance: gadolinium diethylenetriamine pentaacetic acid [Free Gd-DTPA]
- enhancement on scans (tissue to muscle ratio) (Male Wistar rats): no significant enhancement of the liver, kidney and urine
- Liver + Muscle (ratio of liver enhancement to muscle enhancement) (Male buffalo rats; Dose 0.109 mM/Kg): -19.3%
- Liver enhancement (Male buffalo rats; Dose 0.109 mM/Kg): 0.0%
- Muscle enhancement (paraspinal muscle) (Male buffalo rats; Dose 0.109 mM/Kg): 22.4%
- Liver + Muscle (ratio of liver enhancement to muscle enhancement) (Male buffalo rats; Dose 0.218 mM/Kg): 8.2%
- Liver enhancement (Male buffalo rats; Dose 0.218 mM/Kg): 11.6%
- Muscle enhancement (paraspinal muscle) (Male buffalo rats; Dose 0.218 mM/Kg): 3.1%
- enhancement on scans after injection (Male buffalo rats; two control animals, 0.1 and 0.2 millimoles/kg): enhancement of renal cortex, renal pelvis and urinary bladder, but no appreciable enhancement of liver or vascular structures
- Relaxivity [1]: 2.79 sec^-1 x mM^-1
- Accuracy Post (Hepatic Metastases; Dose 0.2 mm/kg): 0±0%
- #Post (number of metastases detected on Post contrast scans) (Hepatic Metastases; Dose 0.2 mm/kg): 0±0 isointense
- Sensitivity Post (Hepatic Metastases; Dose 0.2 mm/kg): 0±0%
- Accuracy Post (Hepatic Metastases; Dose 0.5 mm/kg): 40.0±23.5%
- #Post (number of metastases detected on Post contrast scans) (Hepatic Metastases; Dose 0.5 mm/kg): 2.80±1.64
- Sensitivity Post (Hepatic Metastases; Dose 0.5 mm/kg): 40.0±23.5%
- lesion detection by the five radiologists (Hepatic Metastases; post versus pre contrast, Mann-Whitney test): statistically significant reduction in lesion detection
